{
  "source": "patent US10350272B2",
  "about": "“Calcitonin analogues for treating diseases and disorders” (KeyBioscience AG, priority 2015, dated 2019)",
  "format_in_all_cases": "in vivo, rat",
  "key": {"[1]": {"system": "liver sections from HFD-fed rats", "test": "Oil-Red-O staining of frozen liver sections", "conditions": "HFD rats, 2.5 μg/kg daily", "description": "At termination of the study of Example 2 the rat livers were embedded using snap freezing in OCT, and then sectioned using a cryomicrotome. Sections were prepared from four groups, KBP-042 in HFD rats, KBP-089 in HFD rats, control HFD rats, and a lean rat comparison.\nThe sections were stained using Oil-Red-O staining. […] The lipid accumulation in pair-fed KBP-089 liver exceeded KBP-089 treated rats with 66.5% (p<0.001) and was not significant different from vehicle (0.6711). Statistical test performed was one-way ANOVA with Dunnet's post test for multiple comparisons. **p<0.01, ***p<0.001."}, "[2]": {"system": "HFD rats", "test": "Oral glucose tolerance test (OGTT)", "text": "Animals were challenged with an oral glucose bolus (2 g/kg) at time=0, and dosed with either KBP-042 or saline at t=−30. FIGS. 12A, 12B and 12C show blood glucose levels during acute OGTT, OGTT after 3 weeks, and OGTT after 7 weeks respectively. FIGS. 12D, 12E and 12F show the area under the curve for acute OGTT, OGTT after 3 weeks, and OGTT after 7 weeks respectively. FIGS. 12G, 12H and 12I show insulin levels during acute OGTT, OGTT after 3 weeks, and OGTT after 7 weeks respectively. FIGS. 12J, 12K and 12L show insulin levels during acute OGTT, OGTT after 3 weeks, and OGTT after 7 weeks respectively expressed as area under the curve. n=10 for all groups except vehicle (n=12). Statistical analysis between groups were performed as a One-way ANOVA followed by Tukey's post-hoc test with the following annotations: *P<0.05, **P<0.01, ***P<0.001 vs. HFD-Vehicle. ††P<0.01, †††P<0.001 vs. Pair-fed 5 μg/kg. ‡‡P<0.01, ‡‡‡P<0.001 vs. Pair-fed 10 μg/kg, Data are expressed as mean±SEM."}, "[3]": {"system": "insulin resistant HFD rats", "test": "Hyperinsulinemic-euglycemic clamp (glucose infusion rate)", "description": "As liver fat is known to decrease insulin sensitivity, the effect of KBP-042 on insulin sensitivity was considered using the glucose infusion rate (GIR) in the hyperinsulinemic-euglycemic clamp. For this study ND rats were compared to insulin resistant HFD rats and 5 μg/kg KBP-042 treated HFD rats.\nThe results are shown in FIG. 13: A) Glucose infusion rate (GIR) at steady state during hyperinsulinemic-euglycemic clamp when blood glucose was clamped at basal levels after 21 days treatment; B) Body weight at hyperinsulinemic-euglycemic clamp experiment day after 21 days of treatment. Statistical analysis between groups was performed as a One-way ANOVA followed by Tukey's post-hoc test with the following annotations: *P<0.05, **P<0.01, ***P<0.001. Data are expressed as mean±SEM."}},
  "data": [
    {"substance": "AcCSNLSTCVLGKLSQELHKLQTYPRTDVGANAP-NH2 (Ac-CSNLSTCVLGKLSQELHKLQTYPRTDVGANAP-NH2; not fully specified (bridges); cysteine pairing not given here) [KBP-042, calcitonin mimetic with Cys1-Cys7 disulphide bridge]", "values": [
      {"measurement": "decrease of HFD-induced lipid accumulation in liver compared to vehicle (Oil-Red-O)", "setting": "[1]", "value": 78.3, "unit": "%"},
      {"measurement": "blood glucose", "setting": "[2]; 30 minutes after subcutaneous administration (t=0), acute", "value": "hyperglycemic effect"},
      {"measurement": "glucose tAUC", "setting": "[2]; OGTT after 3 weeks, 2.5 μg/kg, 5 μg/kg and 10 μg/kg", "value": "significantly lowered"},
      {"measurement": "glucose tolerance (tAUC)", "setting": "[2]; OGTT at week 7, 5 μg/kg and 10 μg/kg", "value": "improved glucose tolerance"},
      {"measurement": "glucose total area under the curve (tAUC)", "setting": "[2]; acute OGTT, 10 μg/kg", "value": "significantly increased"},
      {"measurement": "glucose tolerance in OGTT", "setting": "[2]; acute dose, 10 μg/kg, compared to HFD-Vehicle", "value": "slightly impaired glucose tolerance"},
      {"measurement": "insulin levels during OGTT", "setting": "[2]; acute, first 60 minutes after glucose administration", "value": "reduced"},
      {"measurement": "insulin levels during OGTT", "setting": "[2]; after 3 weeks, all treatment groups except 0.625 μg/kg", "value": "lowered"},
      {"measurement": "insulin levels during OGTT", "setting": "[2]; week 7, three highest dose groups, first 60 minutes after glucose administration", "value": "drastically reduced"},
      {"measurement": "body weight reduction", "setting": "[3]; 5 μg/kg, 21 days, HFD rats", "value": "~18", "unit": "%"},
      {"measurement": "increase in glucose infusion rate (GIR) compared to HFD-Vehicle", "setting": "[3]; 5 μg/kg, 21 days, p<0.001", "value": 82, "unit": "%"},
      {"measurement": "increase in GIR compared to ND", "setting": "[3]; 5 μg/kg, 21 days, p<0.05", "value": 27, "unit": "%"},
      {"measurement": "body weight compared to ND rats", "setting": "[3]; 5 μg/kg, end of study (21 days)", "value": "not significantly different"},
      {"measurement": "whole-body insulin sensitivity", "setting": "[3]; hyperinsulinemic-euglycemic clamp", "value": "improved"}
    ]}
  ]
}
